Assay results from ChEMBL document CHEMBL3046715, “In vivo evaluation of substituted 3-phenyl,7-methoxy-benzopyrans as modified estrogens” (2010).

Legend:
Format in all cases: functional
Rattus norvegicus [1] = assay: Estrogen agonistic activity in immature Rattus norvegicus Sprague-Dawley (rat) assessed as gain in uterine weight at 10 mg/kg, po qd for 3 days
Rattus norvegicus [2] = assay: Estrogen antagonistic activity in immature Rattus norvegicus Sprague-Dawley (rat) assessed as inhibition of ethynylestradiol-induced increase in uterine weight at 10 mg/kg, po qd for 3 days; conditions: 72 h
Rattus norvegicus [3] = assay: Estrogen agonistic activity in immature Rattus norvegicus Sprague-Dawley (rat) assessed as uterine weight at 0.02 mg/kg, po qd for 3 days (reference value: 14 +/- 1.3 to 22.23 +/- 1.2 mg)

Structure (SMILES) | Activity (Rattus norvegicus [1]) [%] | inhibition in vivo at 10 mg/kg (Rattus norvegicus [2]) [%] | Activity (Rattus norvegicus [3]) [mg]
COc1ccc(C2COc3cc(OCCCC(C)(C)O)ccc3C2)cc1 (configuration not stated) | 31 | 6 | –
CCC(O)(CC)CCCOc1ccc2c(c1)OCC(c1ccc(OC)cc1)C2 (configuration not stated) | 48 | 3 | –
C=C1CC[C@H](O)C/C1=C/C=C1\CCC[C@]2(C)[C@@H]([C@H](C)CCCC(C)C)CC[C@@H]12 [CHOLECALCIFEROL] | 82 | 39 | –
C#C[C@]1(O)CC[C@H]2[C@@H]3CCc4cc(O)ccc4[C@H]3CC[C@@]21C [ETHINYL ESTRADIOL] | 480 | – | 85
COc1ccc2c(c1)OC(C)(C)C(c1ccccc1)C2c1ccc(OCCN2CCCC2)cc1 (configuration not stated) [ORMELOXIFENE] | 156 | 67 | –
O=C(c1ccc(OCCN2CCCCC2)cc1)c1c(-c2ccc(O)cc2)sc2cc(O)ccc12 [RALOXIFENE] | 90 | 57 | –
